Measurements from patent publication US20240041902A1, “COMPOSITIONS AND METHODS FOR THE TREATMENT OF UROTHELIAL CANCER” (The State of Israel, Ministry of Agriculture & Rural …, priority 2020, published 2024).

Experiments:
T24 cells [1] = assay: Apoptosis assay (Annexin V-FITC and PI, FACS); type: cell-based, human; settings: 48 hours
Description: Apoptosis assay and cell cycle analysis—T24 cells were treated with cannabis compounds or with methanol as a vehicle control. Cell cycle was determined at 24 h and apoptosis was determined at 48 h post-treatment. Staining and detection followed manufacturer instructions. Briefly, for the apoptosis assay, the MEBCYTO Apoptosis Kit with Annexin V-FITC and PI (MBL, Enco, 4700) was used. Cells were seeded in culture 6-wells plates, at density of 5×10^5 cells per well in McCoy's 5A (for T24 a cells) or in RPMI (for HTB-9 cells). The following day, media was replaced with new media containing treatment or methanol control. Cells were then incubated for 24 or 48 h at 37° C. in a humidified 5% CO2 95% air atmosphere. Following incubation, cells were harvested and collected separately. Tubes were centrifuged for 2 min at 900 g and cell pellets were resuspended and washed twice with 1 mL of PBS. The cells in each sample were resuspended in 85 μL of Annexin binding buffer. Cells were stained using 10 μL of Annexin V-FITC solution and 5 μL of propidium iodide (PI) working solution followed by 15 min incubation in the dark at room temperature. Then 400 μL of Annexin V binding buffer were added to each tube and flow cytometry was performed using a FORTESA flow cytometer (FACS). Cells were considered to be apoptotic if they were Annexin V+/PI− (early apoptotic) or Annexin V+/PI+ (late apoptotic). Live cells were defined as Annexin V−/PI−, and Annexin V−/PI+ as necrotic.
Cell proliferation assay—XTT assay was carried on T24 and HTB-9 cells. 1×10^4 cells/well were seeded in 96-well plates. […] MMC was used as a positive control. […] Absorbance was recorded by a Synergy 111 hybrid reader photometer (BioTek) at 490 nm with 650 nm of reference wavelength. […] The cell cycle was determined at 24 hours and apoptosis was determined at 48 hours following treatment. […] Then 200 μL of PBS was added to each tube and the cells were analyzed using FACS.

T24 cells [2] = assay: Transwell cell invasion assay; settings: MMC 4 μg/mL, positive control
Source text: A transwell assay, as described in [35], was used to determine cell invasion (n=3),

E-cadherin = assay: qRT-PCR of E-cadherin mRNA in T24 cells; type: cell-based, human; settings: 2 hours treatment, extracts 30, MMC 8 μg/mL
Source text: […] The RNA was reverse transcribed. The expression of each target gene was normalized to the expression of hypoxanthine phosphoribosyltransferase 1 (HPRT1; geneID 3251) mRNA as the 2^−66 ΔCt method that presents the differences ( ) in the threshold cycle (Ct) between the target gene and the HPRT1 gene. ΔCt=Ct target gene—Ct HPRT1. Experiments were repeated 4 times (4 biological repeats), with two more technical repeats. The primers were as follows:

N-cadherin = assay: qRT-PCR of N-cadherin mRNA in T24 cells; type: cell-based, human; settings: 2 hours treatment, 2 hours after washout
Source text: […] Cells were then harvested and total RNA was isolated. The RNA was reverse transcribed. The expression of each target gene was normalized to the expression of hypoxanthine phosphoribosyltransferase 1 (HPRT1; geneID 3251) mRNA as the 2^−66 ΔCt method that presents the differences ( ) in the threshold cycle (Ct) between the target gene and the HPRT1 gene. ΔCt=Ct target gene—Ct HPRT1. Experiments were repeated 4 times (4 biological repeats), with two more technical repeats. The primers were as follows:

T24 cells [3] = assay: Cell cycle analysis (PI staining, FACS); type: cell-based, human; settings: 24 hours, DQ 30, sCBD 30, MMC 8 μg/mL
Description: For cell cycle analysis, cells were seeded in 6-wells culture plates at a concentration of 5×10^5 cells per well in McCoy (for T24 cells). The following day, media was replaced with new media containing treatments or methanol control. Cells were then incubated for 24 h at 37° C. in a humidified 5% CO2, 95% air atmosphere. Following 24 h of incubation, media was replaced with new media containing treatment or methanol control. Cells from each well were then harvested and collected separately and centrifuged for 2 min at 900 g. The cell pellet was washed once with 1 mL of PBS and fixed with 70% cold ethanol at 4° C. for at least 1 h. The fixed cells were pelleted out and washed twice with 1 mL of PBS. The cell pellet was then stained by re-suspending in 250 μL of PI solution (50 μg/mL) containing RNase A (100 μg/mL) for 30 min in the dark. Following, 200 μL of PBS were added to each tube and cells were analyzed using FACS.
Cell proliferation assay—XTT assay was carried on T24 and HTB-9 cells. 1×10^4 cells/well were seeded in 96-well plates. […] MMC was used as a positive control. XTT reagent (2,3,-bis (2-methoxy-4-nitro-5-sulfophenyl)-5-[(phenylamino)-carbonyl]-2H-tetrazolium inner salt) was added for 2 h at 37° C. in a humidified atmosphere of 5% CO2 to 95% air. Absorbance was recorded by a Synergy 111 hybrid reader photometer (BioTek) at 490 nm with 650 nm of reference wavelength. Cell survival (% r, viability) was estimated using the equation: % cell survival=(A490−A650) of treatment/(A490−A650) of solvent control×100. A490 and A650 are the absorbencies of the XTT colorimetric reaction. […] Apoptosis assay and cell cycle analysis—T24 cells were treated with cannabis compounds or with methanol as vehicle control. The cell cycle was determined at 24 hours and apoptosis was determined at 48 hours following treatment. Staining and detection followed the manufacturer's instructions. […] Then 200 μL of PBS was added to each tube and the cells were analyzed using FACS.

CO[C@@]12[C@H](COC(N)=O)C3=C(C(=O)C(C)=C(N)C3=O)N1C[C@@H]1N[C@@H]12 [MMC, Mitomycin-C]
cell apoptosis (T24 cells [1]; CBC+THC 17.2+2.8, CBD 15, MMC 8 μg/mL, control 46.2%): 79.6% | cell necrosis (T24 cells [1]; DQ 30, sCBD 30, MMC 8 μg/mL, control 1.69%): 25.13% | reduction of cell invasion in comparison to control (T24 cells [2]): 43.7±4.8% | E-cadherin expression (E-cadherin; 2 hours after washout): reduced | E-cadherin expression (E-cadherin; 6 hours after washout): significantly induced | N-cadherin expression (N-cadherin): slightly reduced | G2/M-phase cells (T24 cells [3]): 28.1% | S-phase cells (T24 cells [3]; vehicle control 19.6%): 34.4%
